Measurements: a melting point compilation (Tetko et al.)

| Structure (SMILES) | melting point |
| --- | --- |
| Cc1ccc2nc(C(F)(F)F)cc(Cl)c2c1 | 62 to 65 °C |
| CCc1cccc2c3c([nH]c12)C(CC)(CC(=O)O)OCC3 (stereo not drawn) | 146 °C |
| CNC(=NO)c1cc(C(C)(C)C)c(O)c(C(C)(C)C)c1 | 200 to 201 °C |
| CC(C)(C)OC(=O)N1CCC(O)CC1 | 63 °C |
| COc1cc(C(C)(C)C)c(O)c(C(C)(C)C)c1 | 105 °C |
| CC(C)(O)CC(C)(O)c1ccc(Cl)cc1 (stereo not drawn) | 76.5 °C |
| O=[N+]([O-])c1ccc2c(c1)oc1ccccc12 | 182 °C |
| CN(CC(=O)O)C(=O)c1ccccc1 | 101 to 105 °C |
| C=C(C)C(=O)OCC1CO1 (stereo not drawn) | -82 °C |
| Brc1cccc2c1Oc1cccc(Br)c1O2 | 207 °C |
| O=c1cc2oc3cc(O)c(O)cc3c(-c3ccccc3)c-2cc1O | 300 °C |
| O=Cc1ccc(OP(=S)(Oc2ccc(C=O)cc2)Oc2ccc(C=O)cc2)cc1 | 115 to 119 °C |
| O=P1(NCCCl)OCCCN1CCCl (stereo not drawn) | 43.4 °C |
| C=CCN(CC=C)C(=O)C(Cl)Cl | 5.5 °C |
| Cc1cc(C)oc(=O)c1 | 51.5 °C |
| Nc1cccc(-c2ccncc2)c1 | 167 to 168 °C |
| C=C(C)C(=C)C | -76 °C |
| O=C(O)c1cnc(NCc2ccccc2)s1 | 163 to 164 °C |
| N#CC12CC3CC(CC(C3)C1)C2 | 195 °C |
| CN1CCN(C(=O)OC2c3nccnc3C(=O)N2c2ccc(Cl)cn2)CC1 (stereo not drawn) | 178 °C |
| CCCC(C(N)=O)c1ccc(O)c(O)c1 (stereo not drawn) | 133 to 135 °C |
| COc1ccc(-c2nnc3n2NC(c2ccccc2OC)S3)cc1 (stereo not drawn) | 166 °C |
| CC(=CCNc1ncnc2c1ncn2C1OC(CO)C(O)C1O)CO (stereo not drawn) | 179 to 180 °C |
| O=[N+]([O-])c1ccc(C(Cl)=Cc2ccc(C=C(Cl)c3ccc([N+](=O)[O-])cc3[N+](=O)[O-])cc2)c([N+](=O)[O-])c1 | 245 °C |
| COc1cc(/C=C/C(=O)c2ccc3ccccc3c2)cc(OC)c1OC | 119 °C |
| CSc1ccc(C#N)cc1 | 62 °C |
| C#CC=CC=C | -81 °C |

| Structure (SMILES) | melting point |
| --- | --- |
| O=C(O)Cc1cccc(Cl)c1Cl | 134 °C |
| Clc1ccc(-c2cc3ccccc3[nH]2)cc1 | 206 °C |
| NNc1c(Cl)cc(Cl)cc1Cl | 142 °C |
| CC(=O)n1c2ccccc2c2cc3ccccc3nc21 | 187 °C |
| CN(C)c1ccc(N=Nc2ccc(N)cc2)cc1 | 189 °C |
| O=C1OCCC1N(C(=O)C1CC1)c1cccc(Cl)c1 (stereo not drawn) | 95 °C |
| N#CCC(=O)N1CCCCC1 | 88 °C |
| O=C(O)C=CC(=O)Nc1ccc(Cl)cc1Cl | 178 °C |
| Cc1c(Cc2c(C)n(C)n(-c3ccccc3)c2=O)c(=O)n(-c2ccccc2)n1C | 155 °C |
| CC(C)NNC(=O)c1ccncc1 | 150 °C |
| C=CCSc1nc(C)n[nH]1 | 88 to 90 °C |
| CCOC(=O)N(c1ccccc1)c1ccccc1 | 72 °C |
| OCc1cc(C(O)CNCCCCCCOCCCCc2ccccc2)ccc1O (stereo not drawn) | 75.8 °C |
| CN(C(=O)COc1nc2ccccc2s1)c1ccccc1 | 135 °C |
| CC(C)(C)OC(=O)N1CCC(N)CC1 | 46 °C |
| Cc1nc(C#N)cs1 | 58 °C |
| CCCCCCCC(=O)OCCC | -46.2 °C |
| O=C(O)C=Cc1cccnc1 | 233 to 237 °C |
| N#Cc1cn(-c2ccccc2Cl)c(=O)[nH]c1=O | 255 to 258 °C |
| COc1ccccc1-c1nnc2n1NC(c1ccccc1OC)S2 (stereo not drawn) | 173 °C |
| O=C(C(Br)Br)C(Br)(Br)Br | 79.5 °C |
| Cc1ccc(C(=O)/C=C/c2ccc(-c3ccc(Cl)cc3)o2)o1 | 171 °C |
| O=C(O)C(C(=O)O)c1ccsc1 | 139 °C |
| O=C(NC(Cc1ccccn1)C(=O)O)OCC1c2ccccc2-c2ccccc21 (stereo not drawn) | 154 °C |
| O=C(O)c1ccc(-n2ccc(C(F)(F)F)n2)cc1 | 189 to 190 °C |
| Nc1cc(Cl)cnc1Cl | 124 to 125 °C |
| CC(=Cc1ccccc1)C(=O)Cl | 45 to 46 °C |

| Structure (SMILES) | melting point |
| --- | --- |
| O=C1C=CC(=O)C(Cl)=C1 | 52 to 57 °C |
| Nc1c(F)c(F)c(-c2c(F)c(F)c(N)c(F)c2F)c(F)c1F | 175 to 179 °C |
| O=[N+]([O-])c1cc(Cl)ccc1F | 8.3 °C |
| CN(C)CCCOc1nn(Cc2ccccc2)c2ccccc12 | 160 °C |
| CC(C)OP(=O)(CCP(=O)(OC(C)C)OC(C)C)OC(C)C | 35.5 °C |
| CC1(C)C=Cc2c(ccc3c2OC2c4ccc(O)cc4OCC32)O1 (stereo not drawn) | 178 °C |
| Nc1ccc2cc(N)ccc2c1 | 213 °C |
| OC1CCC(O)C1 (stereo not drawn) | 40 °C |
| Cc1cc(C)c(N)c(C)c1N | 90 °C |
| [O-][N+](=Nc1cccc(O)c1)c1cccc(O)c1 | 183 °C |
| COc1ccc(C=Nn2c(C)cc(C)c(C#N)c2=O)cc1 | 249 to 250 °C |
| N#CC1=C(N)Oc2ccc(Cl)cc2C1C(C#N)C#N (stereo not drawn) | 155 to 156 °C |
| NC(=O)c1cnccc1/C=C/c1ccccc1 | 200 °C |
| CC(=O)C(=Cc1ccc(-c2ccccc2[N+](=O)[O-])o1)C(C)=O | 127 to 128 °C |
| Cc1ccc(-c2csc(/C(C#N)=N\Nc3ccc(Cl)cc3Cl)n2)cc1 | 211 °C |
| S=C=NCC(c1ccccc1)c1ccccc1 | 36 to 38 °C |
| COC(=O)c1sc2ccccc2c1Cl | 81 °C |
| CC1=CC2OC3C(O)CC(C)(C34CO4)C2(CO)C(O)C1=O (stereo not drawn) | 152 °C |
| NCCCO | 11 °C |
| Cc1ccc(C)c2c1-c1nc3ccccc3nc1-2 | 195 °C |
| CC(=O)Nc1ccccc1Br | 99 °C |
| O=C(NCc1ccccn1)c1cc([N+](=O)[O-])cc([N+](=O)[O-])c1 | 120 °C |
| O=C(O)C(F)(F)C(F)(F)C(F)(F)C(F)(F)C(F)(F)C(F)(F)C(F)(F)C(F)(F)C(F)(F)C(F)(F)C(F)(F)C(F)(F)C(F)(F)F | 130 °C |
| CCCCC#Cc1cncc(C(=O)NN)c1 | 158 to 161 °C |
| N#CCc1ccc2c(c1)OCO2 | 43 to 45 °C |

The remaining lines, values ahead:

| melting point | Structure (SMILES) |
| --- | --- |
| -31 °C | C=C(C)CCCCCCCCCC |
| 59 to 64 °C | c1cncc(Cn2cccc2)c1 |
| 137 to 139 °C | COc1ccc(C=C(Oc2ccc(Cl)cc2)c2nc3ccccc3s2)cc1 |
| 197 °C | CC(=O)CC(c1ccc([N+](=O)[O-])cc1)c1c(O)oc2ccccc2c1=O (stereo not drawn) |
| 33 °C | CN(C)CCCN1c2ccccc2Sc2ccccc21 |
| 119 to 120 °C | COC(=O)c1sc(C(F)(F)F)c(-c2ccccc2)c1N |
| 138 to 140 °C | Nc1sccc1-c1nc2ccccc2s1 |
| 46 to 47 °C | O=C=Nc1cccc(-n2cccc2)c1 |
| 169 °C | CC(=O)Nc1ccc(O)cc1 |
| 70 °C | CC1(C)OC(=O)c2ccccc21 |
| 94 to 95 °C | CCCC(=O)c1ccc(N)cc1 |
| 147 to 150 °C | O=C(O)c1cccc2c1CCCC2 |
| 109 °C | CN(C(=S)C(=O)c1ccccc1)c1ccccc1 |
| 104 °C | CC(=O)NC(=O)COC(=O)c1ccccc1 |
| 147 °C | NC(=O)Cc1cccs1 |
| 68 °C | N#CCc1ccc(OCc2ccccc2)cc1 |
| 250 °C | O=Nc1ccc2c(O)ccc(N=O)c2c1O |
| 156 °C | O=C1OC(c2ccccn2)Cc2ccccc21 (stereo not drawn) |
| 88 °C | O=C1c2ccccc2C(=O)C1(CN1CCOCC1)c1ccccc1 |
| 177 to 179 °C | Cc1ccc(S(=O)(=O)NN=Cc2coc(C=Cc3ccccc3)n2)cc1 |
| 81.5 °C | Cc1ccc2ccccc2c1[N+](=O)[O-] |
| 128 °C | Nc1ccc(I)cn1 |
| 176 to 178 °C | NC(=S)c1c(Cl)cc(C(F)(F)F)cc1Cl |
| 191 to 198 °C | CS(=O)(=O)c1ccc(N)c(Cl)c1 |
| -90 °C | FC(F)(F)C(F)(F)C(F)(F)C(F)(F)C(F)(F)C(F)(F)OC(F)(F)C(F)(F)C(F)(F)C(F)(F)C(F)(F)C(F)(F)F |

| melting point | Structure (SMILES) |
| --- | --- |
| 300 °C | Nc1nc(N)c(N=O)c(N)n1 |
| 80 to 81 °C | Cc1nc(-c2ccc(N=C=O)cc2)cs1 |
| 187 °C | CC1=NN(CN2CCOCC2)C(=O)/C1=N\Nc1ccc(C(=O)O)cc1 |
| 140 °C | CC(C)=CCCC(C)C1CCC2(C)C3=C(CCC12C)C1(C)CCC(O)C(C)(C)C1CC3 (stereo not drawn) |
| 172 to 174 °C | Cn1c2ccccc2c2cc([N+](=O)[O-])ccc21 |
| 245 to 247 °C | Cc1nc2ccc(Br)cn2c(=O)c1C(=O)c1ccccc1 |
| 146 to 149 °C | Cc1ccc(C(=O)O)c(C(=O)O)c1 |
| 176 °C | CCCOC(=O)C1=C(C)NC(=O)NC1c1ccccc1 (stereo not drawn) |
| 143 to 144 °C | CC(C)(C)OC(=O)N1CCCN(c2cccc(O)c2)CC1 |
| 115 °C | CSCCC(NC(C)=O)C(=O)O (racemic) |
| 25.5 °C | CCCCCCCCCCCCCCCCCC(=O)OCCC(C)C |
| 200 °C | CC12CCC(C(=O)O)(OC1=O)C2(C)C (stereo not drawn) |
| 190 °C | c1ccc(-c2ccc(N=C(CNc3ccc(-c4ccccc4)cc3)Nc3ccc(-c4ccccc4)cc3)cc2)cc1 |
| 148 °C | Nc1ncnc2c1ncn2C1CC(O)C(COP(=O)(O)O)O1 (stereo not drawn) |
| 82 to 84 °C | CNC(=O)CC#N |
| 58 to 60 °C | OCc1cccc(COc2ccccc2)c1 |
| 219 °C | NC(=O)CN(CC(=O)O)CC(=O)O |
| 118 °C | Oc1cc(O)cc(Cl)c1 |
| 267 °C | NS(=O)(=O)c1cc2c(cc1Cl)NCNS2(=O)=O |
| 103 to 104 °C | C/C(CCc1oc2ccc(C)cc2c1-c1ccc(C)o1)=N/O |
| 238 °C | CC(=NNC(N)=O)c1cccc(C(C)=NNC(N)=O)c1 |
| 116 °C | N#CCC(=O)c1ccc(Cl)c(Cl)c1 |
| 71 °C | O=Cc1cn2ccsc2n1 |
| 88 to 89 °C | Brc1sc(-c2ccccc2)nc1-c1ccccc1 |
